Source: patent publication US10829481B2, “Benzimidazole derivatives as modulators of ROR-gamma” (Vitae Pharmaceuticals, LLC, priority 2016, dated 2020)

Key:
[1] = biological target: recombinant RORγ Ligand Binding Domain (LBD) protein (Homo sapiens (Human), UniProt P51449); experiment: Radio-Ligand RORγ Binding Assay (Assay 1); settings: competition with 25-hydroxy [26,27-3H]-cholesterol, SPA
Method in brief: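 Scintillation proximity competition against 25-hydroxy [26,27-^3H]-cholesterol (8.6 nM solution) for 6×His-GST-tagged RORγ LBD (24 nM solution) in HEPES pH 7.4 with CHAPS, β-octylglucopyranoside and DTT; semi-log compound dilutions, ~1 h total at rt with poly-Lys YSi beads. IC50 from four-parameter fit; Ki derived from [RL] and radioligand KD.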

[2] = biological target: full-length RORγt in Jurkat cells (Homo sapiens (Human), UniProt P51449); experiment: RORγt 5×RORE Assay in Jurkat Cells (Assay 2); assay type: cell-based; settings: 5×RORE Nanoluc luciferase reporter
Chain of full-length RORγt in Jurkat cells (P51449 other isoform, or with tags, fused parts or gaps): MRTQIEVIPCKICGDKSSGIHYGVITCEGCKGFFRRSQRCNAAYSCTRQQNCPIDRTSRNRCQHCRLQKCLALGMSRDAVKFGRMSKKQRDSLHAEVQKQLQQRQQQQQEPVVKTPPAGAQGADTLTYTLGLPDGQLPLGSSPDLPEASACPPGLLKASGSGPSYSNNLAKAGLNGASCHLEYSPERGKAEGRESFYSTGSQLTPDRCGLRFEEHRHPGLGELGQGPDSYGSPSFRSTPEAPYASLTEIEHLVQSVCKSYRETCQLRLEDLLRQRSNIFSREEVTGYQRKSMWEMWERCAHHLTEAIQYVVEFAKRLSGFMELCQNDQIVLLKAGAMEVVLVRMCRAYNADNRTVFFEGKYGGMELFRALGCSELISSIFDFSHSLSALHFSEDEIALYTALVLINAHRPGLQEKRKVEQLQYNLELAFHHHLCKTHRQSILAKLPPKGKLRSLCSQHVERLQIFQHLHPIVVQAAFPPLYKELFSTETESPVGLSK

Chain of recombinant RORγ Ligand Binding Domain (LBD) protein (P51449 269-508): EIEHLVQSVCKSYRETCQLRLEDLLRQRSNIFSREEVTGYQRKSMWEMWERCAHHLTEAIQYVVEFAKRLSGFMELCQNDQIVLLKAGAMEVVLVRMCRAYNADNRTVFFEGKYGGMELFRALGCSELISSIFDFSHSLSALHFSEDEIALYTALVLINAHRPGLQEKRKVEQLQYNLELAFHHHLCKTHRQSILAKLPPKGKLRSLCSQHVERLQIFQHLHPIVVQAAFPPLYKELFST

| Ki [1] [nM] | IC50 [2] [nM] | SMILES |
| --- | --- | --- |
| < 100 | < 100 | CCS(=O)(=O)c1ccc(CNC(=O)c2ccc3c(c2)nc([C@@H]2C[C@H]2C#N)n3Cc2cccc3c2OC(F)(F)O3)cc1 [I-57, 2-((1R,2R)-2-cyanocyclopropyl)-1-((2,2-difluorobenzo[d][1,3]dioxol-4-yl)methyl)-N-(4-(ethylsulfonyl)benzyl)-1H-benzo[d]imidazole-5-carboxamide] |
| < 100 | 100 to 1000 | CCS(=O)(=O)c1ccc(CNC(=O)c2ccc3c(c2)nc([C@@H]2C[C@H]2C(=O)OC)n3Cc2cccc3c2OC(F)(F)O3)cc1 [I-58, methyl(1R,2R)-2-(1-((2,2-difluorobenzo[d][1,3]dioxol-4-yl)methyl)-5-((4-(ethylsulfonyl)benzyl)carbamoyl)-1H-benzo[d]imidazol-2-yl)cyclopropane-1-carboxylate] |
| < 100 | < 100 | CCS(=O)(=O)c1ccc([C@H](COC)NC(=O)c2ccc3c(c2)nc(C(F)(F)F)n3Cc2cccc3c2OC(F)(F)O3)cc1 [I-59, (R)-1-((2,2-difluorobenzo[d][1,3]dioxol-4-yl)methyl)-N-(1-(4-(ethylsulfonyl)phenyl)-2-methoxyethyl)-2-(trifluoromethyl)-1H-benzo[d]imidazole-5-carboxamide] |
| < 100 | < 100 | CCS(=O)(=O)c1ccc([C@H](COC)NC(=O)c2ccc3c(c2)nc(C2CC2)n3Cc2cccc3c2OC(F)(F)O3)cc1 [I-60, (R)-2-cyclopropyl-1-((2,2-difluorobenzo[d][1,3]dioxol-4-yl)methyl)-N-(1-(4-(ethylsulfonyl)phenyl)-2-methoxyethyl)-1H-benzo[d]imidazole-5-carboxamide] |
| < 100 | < 100 | CCS(=O)(=O)c1ccc([C@H](COC)NC(=O)c2ccc3c(c2)nc(C2(F)CC2)n3Cc2cccc3c2OC(F)(F)O3)cc1 [I-61, (R)-1-((2,2-difluorobenzo[d][1,3]dioxol-4-yl)methyl)-N-(1-(4-(ethylsulfonyl)phenyl)-2-methoxyethyl)-2-(1-fluorocyclopropyl)-1H-benzo[d]imidazole-5-carboxamide] |
| < 100 | < 100 | CCS(=O)(=O)c1ccc([C@H](COC)NC(=O)c2ccc3c(c2)nc(C(F)(F)F)n3Cc2cccc3c2OC(F)(F)O3)nc1 [I-62, (R)-1-((2,2-difluorobenzo[d][1,3]dioxol-4-yl)methyl)-N-(1-(5-(ethylsulfonyl)pyridin-2-yl)-2-methoxyethyl)-2-(trifluoromethyl)-1H-benzo[d]imidazole-5-carboxamide] |
| < 100 | < 100 | CCS(=O)(=O)c1ccc(CNC(=O)c2ccc3c(c2)nc(C(F)(F)F)n3Cc2cccc3c2OC(F)(F)O3)nc1 [I-63, 1-((2,2-difluorobenzo[d][1,3]dioxol-4-yl)methyl)-N-((5-(ethylsulfonyl)pyridin-2-yl)methyl)-2-(trifluoromethyl)-1H-benzo[d]imidazole-5-carboxamide] |
| < 100 | < 100 | CCS(=O)(=O)c1ccc(CNC(=O)c2ccc3c(c2)nc(C2CC2)n3Cc2cccc3c2OC(F)(F)O3)nc1 [I-64, 2-cyclopropyl-1-((2,2-difluorobenzo[d][1,3]dioxol-4-yl)methyl)-N-((5-(ethylsulfonyl)pyridin-2-yl)methyl)-1H-benzo[d]imidazole-5-carboxamide] |
| < 100 | < 100 | CCS(=O)(=O)c1ccc(CNC(=O)c2ccc3c(c2)nc(C2CCC2)n3Cc2cccc3c2OC(F)(F)O3)nc1 [I-65, 2-cyclobutyl-1-((2,2-difluorobenzo[d][1,3]dioxol-4-yl)methyl)-N-((5-(ethylsulfonyl)pyridin-2-yl)methyl)-1H-benzo[d]imidazole-5-carboxamide] |
| < 100 | < 100 | CCS(=O)(=O)c1ccc(CNC(=O)c2ccc3c(c2)nc(C(C)(F)F)n3Cc2cccc3c2OC(F)(F)O3)nc1 [I-66, 1-((2,2-difluorobenzo[d][1,3]dioxol-4-yl)methyl)-2-(1,1-difluoroethyl)-N-((5-(ethylsulfonyl)pyridin-2-yl)methyl)-1H-benzo[d]imidazole-5-carboxamide] |
| < 100 | < 100 | CCS(=O)(=O)c1ccc(CNC(=O)c2ccc3c(c2)nc(C2(F)CC2)n3Cc2cccc3c2OC(F)(F)O3)nc1 [I-67, 1-((2,2-difluorobenzo[d][1,3]dioxol-4-yl)methyl)-N-((5-(ethylsulfonyl)pyridin-2-yl)methyl)-2-(1-fluorocyclopropyl)-1H-benzo[d]imidazole-5-carboxamide] |
| < 100 | < 100 | CS(=O)(=O)c1ccc(CNC(=O)c2ccc3c(c2)nc(C2(F)CC2)n3Cc2cccc3c2OC(F)(F)O3)nc1 [I-68, 1-((2,2-difluorobenzo[d][1,3]dioxol-4-yl)methyl)-2-(1-fluorocyclopropyl)-N-((5-(methylsulfonyl)pyridin-2-yl)methyl)-1H-benzo[d]imidazole-5-carboxamide] |
| < 100 | < 100 | CCS(=O)(=O)c1ccc(CNC(=O)c2ccc3c(c2)nc(C2(F)CCC2)n3Cc2cccc3c2OC(F)(F)O3)nc1 [I-69, 1-((2,2-difluorobenzo[d][1,3]dioxol-4-yl)methyl)-N-((5-(ethylsulfonyl)pyridin-2-yl)methyl)-2-(1-fluorocyclobutyl)-1H-benzo[d]imidazole-5-carboxamide] |
| < 100 | < 100 | CS(=O)(=O)c1ccc(CNC(=O)c2ccc3c(c2)nc(C(F)(F)F)n3Cc2cccc3c2OC(F)(F)O3)nc1 [I-70, 1-((2,2-difluorobenzo[d][1,3]dioxol-4-yl)methyl)-N-((5-(methylsulfonyl)pyridin-2-yl)methyl)-2-(trifluoromethyl)-1H-benzo[d]imidazole-5-carboxamide] |
| < 100 | < 100 | CS(=O)(=O)N1CCC(CNC(=O)c2ccc3c(c2)nc(C(F)(F)F)n3Cc2cccc3c2OC(F)(F)O3)CC1 [I-71, 1-((2,2-difluorobenzo[d][1,3]dioxol-4-yl)methyl)-N-((1-(methylsulfonyl)piperidin-4-yl)methyl)-2-(trifluoromethyl)-1H-benzo[d]imidazole-5-carboxamide] |
| < 100 | < 100 | CS(=O)(=O)N1CCC(CNC(=O)c2ccc3c(c2)nc(C2CC2)n3Cc2cccc3c2OC(F)(F)O3)CC1 [I-72, 2-cyclopropyl-1-((2,2-difluorobenzo[d][1,3]dioxol-4-yl)methyl)-N-((1-(methylsulfonyl)piperidin-4-yl)methyl)-1H-benzo[d]imidazole-5-carboxamide] |
| < 100 | < 100 | CS(=O)(=O)N1CCC(CNC(=O)c2ccc3c(c2)nc(C2(F)CC2)n3Cc2cccc3c2OC(F)(F)O3)CC1 [I-73, 1-((2,2-difluorobenzo[d][1,3]dioxol-4-yl)methyl)-2-(1-fluorocyclopropyl)-N-((1-(methylsulfonyl)piperidin-4-yl)methyl)-1H-benzo[d]imidazole-5-carboxamide] |
| < 100 | < 100 | COC(=O)CS(=O)(=O)N1CCC(CNC(=O)c2ccc3c(c2)nc(C(F)(F)F)n3Cc2cccc3c2OC(F)(F)O3)CC1 [I-74, methyl 2-((4-((1-((2,2-difluorobenzo[d][1,3]dioxol-4-yl)methyl)-2-(trifluoromethyl)-1H-benzo[d]imidazole-5-carboxamido)methyl)piperidin-1-yl)sulfonyl)acetate] |
| < 100 | < 100 | CNC(=O)CS(=O)(=O)N1CCC(CNC(=O)c2ccc3c(c2)nc(C(F)(F)F)n3Cc2cccc3c2OC(F)(F)O3)CC1 [I-75, 1-((2,2-difluorobenzo[d][1,3]dioxol-4-yl)methyl)-N-((1-((2-(methylamino)-2-oxoethyl)sulfonyl)piperidin-4-yl)methyl)-2-(trifluoromethyl)-1H-benzo[d]imidazole-5-carboxamide] |
| < 100 | < 100 | COC(=O)C(NC(=O)c1ccc2c(c1)nc(C(F)(F)F)n2Cc1cccc2c1OC(F)(F)O2)C1CCN(S(C)(=O)=O)CC1 (stereo not drawn) [I-76, methyl 2-(1-((2,2-difluorobenzo[d][1,3]dioxol-4-yl)methyl)-2-(trifluoromethyl)-1H-benzo[d]imidazole-5-carboxamido)-2-(1-(methylsulfonyl)piperidin-4-yl)acetate] |
| < 100 | < 100 | CNS(=O)(=O)N1CCC(CNC(=O)c2ccc3c(c2)nc(C(F)(F)F)n3Cc2cccc3c2OC(F)(F)O3)CC1 [I-77, 1-((2,2-difluorobenzo[d][1,3]dioxol-4-yl)methyl)-N-((1-(N-methylsulfamoyl)piperidin-4-yl)methyl)-2-(trifluoromethyl)-1H-benzo[d]imidazole-5-carboxamide] |
| < 100 | < 100 | NC(=O)CS(=O)(=O)N1CCC(CNC(=O)c2ccc3c(c2)nc(C(F)(F)F)n3Cc2cccc3c2OC(F)(F)O3)CC1 [I-78, N-((1-((2-amino-2-oxoethyl)sulfonyl)piperidin-4-yl)methyl)-1-((2,2-difluorobenzo[d][1,3]dioxol-4-yl)methyl)-2-(trifluoromethyl)-1H-benzo[d]imidazole-5-carboxamide] |
| < 100 | 100 to 1000 | CNC(=O)CS(=O)(=O)N1CCC(CNC(=O)c2ccc3c(c2)nc(C2CC2)n3Cc2cccc3c2OC(F)(F)O3)CC1 [I-79, 2-cyclopropyl-1-((2,2-difluorobenzo[d][1,3]dioxol-4-yl)methyl)-N-((1-((2-(methylamino)-2-oxoethyl)sulfonyl)piperidin-4-yl)methyl)-1H-benzo[d]imidazole-5-carboxamide] |
| < 100 | 100 to 1000 | CCS(=O)(=O)c1ccc([C@H](CO)NC(=O)c2ccc3c(c2)nc(C(F)(F)F)n3Cc2cccc3c2OCC3)cc1 [I-80, (R)-1-((2,3-dihydrobenzofuran-7-yl)methyl)-N-(1-(4-(ethylsulfonyl)phenyl)-2-hydroxyethyl)-2-(trifluoromethyl)-1H-benzo[d]imidazole-5-carboxamide] |
